According to PubChem BioAssay (NCI):
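96-well plates; 48 h exposure; 5 concentrations. Endpoints by linear interpolation between flanking doses. Not reached: highest tested concentration assigned. GI50 = concentration required for 50% inhibition of growth. TGI: concentration producing complete growth inhibition.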

Key:
Experiment in all cases: NCI-60 cell line screen, 48 h
NCI-H522 lung = system: NCI-H522 lung
TK-10 renal = system: TK-10 renal
UO-31 renal = system: UO-31 renal
NCI/ADR-RES ovarian = system: NCI/ADR-RES ovarian
SF-539 CNS = system: SF-539 CNS
HL-60(TB) leukemia = system: HL-60(TB) leukemia
SN12C renal = system: SN12C renal
HCT-116 colon = system: HCT-116 colon
HS 578T breast = system: HS 578T breast
DU-145 prostate = system: DU-145 prostate
SF-295 CNS = system: SF-295 CNS
NCI-H226 lung = system: NCI-H226 lung
SNB-75 CNS = system: SNB-75 CNS
OVCAR-4 ovarian = system: OVCAR-4 ovarian
K-562 leukemia = system: K-562 leukemia
MALME-3M melanoma = system: MALME-3M melanoma
OVCAR-8 ovarian = system: OVCAR-8 ovarian
KM12 colon = system: KM12 colon
U251 CNS = system: U251 CNS
OVCAR-3 ovarian = system: OVCAR-3 ovarian
HOP-62 NSCLC = system: HOP-62 NSCLC
HOP-92 NSCLC = system: HOP-92 NSCLC
A498 renal = system: A498 renal
IGROV1 ovarian = system: IGROV1 ovarian
SR leukemia = system: SR leukemia
SK-MEL-28 melanoma = system: SK-MEL-28 melanoma
CCRF-CEM leukemia = system: CCRF-CEM leukemia
HCT-15 colon = system: HCT-15 colon
MOLT-4 leukemia = system: MOLT-4 leukemia

Nc1ncnc2c1c(C(=O)NO)cn2C1OC(CO)C(O)C1O (centres undefined)
GI50 (NCI-H522 lung): 435 nM | TGI (NCI-H522 lung): 4620 nM | GI50 (TK-10 renal): 572 nM | TGI (TK-10 renal): > 31400 nM | GI50 (UO-31 renal): 368 nM | TGI (UO-31 renal): 3750 nM | GI50 (NCI/ADR-RES ovarian): 137 nM | GI50 (SF-539 CNS): 551 nM | TGI (SF-539 CNS): 3010 nM | GI50 (HL-60(TB) leukemia): 158 nM | TGI (HL-60(TB) leukemia): 457 nM | GI50 (SN12C renal): 244 nM | TGI (SN12C renal): 1240 nM | GI50 (HCT-116 colon): 175 nM | TGI (HCT-116 colon): > 23800 nM | GI50 (HS 578T breast): 331 nM | TGI (HS 578T breast): 3540 nM | GI50 (DU-145 prostate): 224 nM | GI50 (SF-295 CNS): 193 nM | TGI (SF-295 CNS): 1130 nM | GI50 (NCI-H226 lung): 600 nM | TGI (NCI-H226 lung): 5510 nM | GI50 (SNB-75 CNS): 509 nM | TGI (SNB-75 CNS): 8040 nM | GI50 (OVCAR-4 ovarian): 213 nM | TGI (OVCAR-4 ovarian): 5610 nM | GI50 (K-562 leukemia): 790 nM | TGI (K-562 leukemia): > 100000 nM | GI50 (MALME-3M melanoma): 388 nM | TGI (MALME-3M melanoma): 3110 nM | GI50 (OVCAR-8 ovarian): 353 nM | TGI (OVCAR-8 ovarian): > 100000 nM | GI50 (KM12 colon): 267 nM | GI50 (U251 CNS): 419 nM | TGI (U251 CNS): > 100000 nM | GI50 (OVCAR-3 ovarian): 278 nM | TGI (OVCAR-3 ovarian): 2420 nM | GI50 (HOP-62 NSCLC): 380 nM | TGI (HOP-62 NSCLC): > 22000 nM | GI50 (HOP-92 NSCLC): 205 nM | TGI (HOP-92 NSCLC): 1250 nM | GI50 (A498 renal): 915 nM | TGI (A498 renal): 6900 nM | GI50 (IGROV1 ovarian): 279 nM | GI50 (SR leukemia): 329 nM | TGI (SR leukemia): 1880 nM | GI50 (SK-MEL-28 melanoma): 479 nM | TGI (SK-MEL-28 melanoma): 3630 nM | GI50 (CCRF-CEM leukemia): 235 nM | TGI (CCRF-CEM leukemia): > 100000 nM | GI50 (HCT-15 colon): 213 nM | TGI (HCT-15 colon): 1890 nM | GI50 (MOLT-4 leukemia): 306 nM | TGI (MOLT-4 leukemia): 1660 nM
